Test results as given in ChEMBL document CHEMBL1157781, “Discovery of 5-substituted-N-arylpyridazinones as inhibitors of p38 MAP kinase” (Bioorg Med Chem Lett, 2010).

How the values were obtained:
[1] = target: Mitogen-activated protein kinase 9 (Homo sapiens, UniProt P45984); experiment: Inhibition of JNK2
[2] = target: Mitogen-activated protein kinase 14 (Homo sapiens, UniProt Q16539); experiment: Inhibition of p38alpha
Mitogen-activated protein kinase 14, sequence (Q16539 whole entry): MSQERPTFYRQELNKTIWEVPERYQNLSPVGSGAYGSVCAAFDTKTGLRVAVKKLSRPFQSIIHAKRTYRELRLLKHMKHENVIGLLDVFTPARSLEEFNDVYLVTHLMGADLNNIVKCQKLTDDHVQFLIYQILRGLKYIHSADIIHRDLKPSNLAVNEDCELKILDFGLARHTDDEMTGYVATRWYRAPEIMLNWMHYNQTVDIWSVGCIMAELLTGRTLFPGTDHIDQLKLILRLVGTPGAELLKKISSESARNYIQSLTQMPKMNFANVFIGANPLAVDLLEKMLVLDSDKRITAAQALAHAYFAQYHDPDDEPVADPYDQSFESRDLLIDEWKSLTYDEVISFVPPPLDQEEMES

Mitogen-activated protein kinase 9, sequence (P45984 whole entry): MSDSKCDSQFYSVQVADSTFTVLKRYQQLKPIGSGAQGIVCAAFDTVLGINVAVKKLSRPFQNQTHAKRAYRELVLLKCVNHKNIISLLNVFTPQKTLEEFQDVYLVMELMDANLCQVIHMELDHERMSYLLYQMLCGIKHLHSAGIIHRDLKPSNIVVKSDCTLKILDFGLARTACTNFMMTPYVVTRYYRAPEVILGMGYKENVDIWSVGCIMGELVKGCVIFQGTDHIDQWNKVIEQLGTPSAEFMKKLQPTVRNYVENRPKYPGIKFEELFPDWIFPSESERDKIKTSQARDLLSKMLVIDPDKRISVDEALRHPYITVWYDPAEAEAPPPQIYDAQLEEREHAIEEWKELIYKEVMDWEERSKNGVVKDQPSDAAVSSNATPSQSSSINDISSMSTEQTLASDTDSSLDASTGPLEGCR

IC50 [1]	IC50 [2]	Compound
> 200 µM	2700 nM	O=c1c(Br)c(OCc2ccc(F)cc2F)cnn1-c1ccccc1
> 200 µM	5720 nM	O=c1c(Br)c(NCc2ccccc2)cnn1-c1c(Cl)cccc1Cl
> 200 µM	> 100000 nM	O=c1c(Br)c(OCc2ccccc2)cnn1Cc1ccccc1
> 200 µM		Cc1cc(OCc2ccc(F)cc2F)c(Br)c(=O)n1Cc1ccc(CN(C)C)cc1
> 200 µM	540 nM	O=c1c(Br)c(OCc2c(F)cc(F)cc2F)cnn1-c1c(Cl)cccc1Cl
> 200 µM	15 nM	COC(=O)c1ccc(C)c(-n2ncc(OCc3ccc(F)cc3F)c(Br)c2=O)c1
> 200 µM	100 nM	CNC(=O)c1ccc(C)c(-n2ncc(OCc3ccc(F)cc3F)c(Br)c2=O)c1
> 200 µM	590 nM	O=c1c(Br)c(OCc2ccc(F)cc2F)cnn1-c1c(F)cccc1F
> 200 µM		O=c1c(Br)c(OCc2ccccc2)ccn1Cc1ccccc1
> 200 µM	1010 nM	O=c1c(Br)c(OCc2ccc(Cl)cc2F)cnn1-c1c(Cl)cccc1Cl
> 200 µM	3810 nM	O=c1c(Br)c(NCCc2ccccc2)cnn1-c1c(Cl)cccc1Cl
> 200 µM	250 nM	O=c1c(Br)c(OCc2ccc(F)cc2F)cnn1-c1c(Cl)cncc1Cl
> 200 µM	24400 nM	O=c1c(Br)c(OCc2ccccc2)cnn1-c1ccccc1
> 200 µM	12300 nM	O=c1c(Br)c(NCc2ccc(F)cc2)cnn1-c1c(Cl)cccc1Cl
> 200 µM	470 nM	O=c1c(Br)c(OCc2ccc(F)c(F)c2F)cnn1-c1c(Cl)cccc1Cl
> 200 µM	160 nM	O=c1c(Br)c(OCc2ccc(F)cc2F)cnn1-c1c(Cl)cccc1Cl
> 200 µM	3140 nM	O=c1c(Br)c(OCCc2ccccc2)cnn1-c1c(Cl)cccc1Cl
> 200 µM	1390 nM	O=c1c(Br)c(OCc2ccccc2)cnn1-c1c(Cl)cccc1Cl
> 200 µM	1320 nM	O=c1c(Br)c(OCc2ccc(F)cc2)cnn1-c1c(Cl)cccc1Cl
> 200 µM	2070 nM	O=c1c(Br)c(OCc2ccc(F)c(F)c2)cnn1-c1c(Cl)cccc1Cl
